The numbers were not newly measured in PMC12304285 (British Journal of Cancer, 2025), which cites them from elsewhere.

The data set has as its system patients with advanced solid tumours. Also on record: method as in PMID 33230210. The following applies: single-agent trial; cited from earlier work.

For the compound `COc1ccc([C@@H](O)c2cc(-c3ncnc4cc(N5CCOCC5)ccc34)c(F)cc2Cl)nn1` [peposertib], the “anaemia or myelosuppressive TEAEs” value is on record as “Neither anaemia nor myelosuppressive TEAEs were reported”.
